Results: patent US10328092B2, “Methods and compositions for treatment of drug addiction” (The Royal Institution for the Advancement of Learning / …, priority 2015, dated 2019)

Experiments:
[1] = test system: microglia in the nucleus accumbens; experiment: Microglia activation in nucleus accumbens (Iba1 immunostaining, morphology); assay type: in vivo, mouse
Method: Resting microglia have a ramified morphology but continuously survey the healthy brain and respond to a variety of activation signals by undergoing progressive morphological and functional changes (Kettenmann et al., 2011). Cocaine administration could activate microglia in the NAc, which could lead to the observed elevation of TNFα. Using the microglia marker Iba1, microglia was labeled in adult mice, 24 hours after a single cocaine injection, 24 hrs after 5 days of daily cocaine injections, or after 10 days of drug abstinence. Although no change was identified in the number of microglia in the NAc at any time point (FIG. 10E), Iba1 intensity was increased in microglia by 5 days of cocaine, and after a period of abstinence (FIG. 6C-D), indicating activation. […] In contrast to the change in microglia, no activation of astrocytes was observed, as judged by GFAP expression. […] This is consistent with the observation that TNFα is derived from microglia and not astrocytes during sensitization.
Mice (8-10 weeks) were perfused and their brains submerged overnight in 4% PFA, cryoprotected with 30% sucrose, and cut in 30 μm thick coronal slices using a cryostat. […] Images of the ventral striatum (nucleus accumbens core and shell) were acquired with a 40× or 60× objective and stacks of 25-30 optical sections (1 μm per section) of depth were Z-projected into a single window and analysed using ImageJ software (NIH).
The number of Iba1+ microglia were manually counted from 212×212 μm (60× objectives) or 317×317 μm (40× objectives) images. TNFα intensity was measured using the mean grey value of the entire image while Iba1 intensity measurements were obtained using a thresholded area to highlight only the microglia. Cell body area (μm^2) was measured based on Iba1 staining and using the freehand selection tool. […] The following parameters were analyzed for 40 microglia per group: total process length (sum of length of all processes), total process volume, process diameter and number of branch points and terminals. […]

mice = experiment: Stereotypic responses to cocaine (pausing, turning, velocity); assay type: in vivo, mouse; conditions: MPLA 10 μg or 50 μg, response to cocaine
Method: Locomotion was monitored in 30×30 cm plexiglass boxes by the EthoVision video-tracking system (Noldus) and performed near the end of the light phase of the light-dark cycle under dim red light. After habituating animals to handling, mice received IP injections of saline or cocaine and their activity was recorded for 15 min. Mice were tested during habituation to injection and the activity boxes (saline; days 1-2) and 5 repeated cocaine injections (15 mg/kg; days 3-7). Following 10 days without injections (withdrawal), mice receive a challenge dose of cocaine (15 mg/kg) and locomotor activity again assessed (day 17). Total distance traveled and stereotypy were evaluated from video by EthoVision. For stereotypy, the frequency of which the mouse stops moving (#pauses/min) was measured using a threshold start velocity of 2.00/second and a threshold stop velocity of 0 cm/s. The number of turns per minute (# turns/min) was measured by calculating the frequency for which the path of the mouse turns over a minimum distance of 3.00 cm. Velocity was assessed as the mean distance traveled (cm) over time (s).

adult microglial cells = experiment: TNFα mRNA in cultured adult mouse microglia; assay type: cell-based; conditions: cocaine 1 μm, 3 hours
Method: (SEQ ID NO: 1) [200 nM]; mouse TNFα reverse, […] (SEQ ID NO: 2) [200 nM]; mouse GAPDH forward, […] (SEQ ID NO: 3) [300 nM]; mouse GAPDH reverse, […] (SEQ ID NO: 4) [300 nM]; rat TNFα forward, […] (SEQ ID NO: 1) [600 nM]; rat TNFα reverse, […] (SEQ ID NO: 5) [600 nM]; rat cyclophilin forward, […] (SEQ ID NO: 6) [500 nM]; rat cyclophilin reverse, […] (SEQ ID NO: 7) [500 nM]. After 40 cycles, the Ct values were determined.
Adult male C57BL/6 mice (8-12 weeks) underwent cardiac perfusion with Hank's Balanced Salt Solution (HBSS) and whole brains were removed. Cortices and striata were dissected, cut in to small pieces and subjected to enzymatic digestion with the Neural Tissue Dissociation Kit (P) (Miltenyi Biotech, US cat no. 130-092-628), as per manufactures instructions. Tissue was homogenised and resuspended in 35% isotonic Percoll, overlayed with HBSS and spun at 400 g for 45 mins for the removal of myelin. Pure populations of microglial cells were obtained through magnetic bead cell sorting using CD11b microbeads (Miltenyi, cat no. 130-093-634). Aliquots from positive and negative bead selected fractions were removed for cell staining to assess cell purity. […] Cells were acquired using a BD FACS Canto II and analyzed using BD FACSDiva software. […]

Molecule | Iba1 intensity in nucleus accumbens ([1]; 24 hours after a single MPLA injection 10 μg, after 10 day withdrawal from cocaine) | mean velocity (mice) | pausing (mice) | turning behaviour (mice) | microglia cell body area ([1]; 5 d cocaine) | decrease of total length of microglia processes ([1]; after 5 days cocaine) | TNFα mRNA, cultured adult microglia (adult microglial cells)
monophosphoryl lipid A [MPLA] | significantly increased | significant decreases | slight increase | significant decreases | – | – | –
COC(=O)[C@H]1[C@@H](OC(=O)c2ccccc2)C[C@@H]2CC[C@H]1N2C [cocaine] | – | – | – | – | 37.2±0.9 μm^2 | 20% | 95 % of control
